Assay results published in US4468511A, “C-20- And C-23-Modified macrolide derivatives” (Eli Lilly and Company, priority 1983, dated 1984).
Values after ≈ are worked out from the molar mass of the structure shown. Where two headings read alike, the source gives them in different places.

Columns and labels:
[1] = tested on: Streptococcus pyogenes C203; test: Protection of mice experimentally infected with S. pyogenes C203; assay type: in vivo
Description: Some of the derivatives of this invention have shown in vivo antimicrobial activity against experimentally-induced infections in laboratory animals. When two doses of test compound were administered to mice experimentally infected with S. pyogenes C203, the activity observed was measured as an ED50 value [effective dose in mg/kg to protect 50% of the test animals: see Warren Wick, et al., J. Bacteriol. 81, 233-235 (1961)].

Pasteurella multocida = test: Pasteurella infection in one-day old chicks; assay type: in vivo; settings: subcutaneous, 30 mg/kg × 2, 1 and 4 hours post-challenge
Description: Certain of the formula 1 compounds of this invention have also shown in vivo activity against infections induced by gram-negative bacteria. Table V summarizes the results of tests in which illustrative compounds were evaluated against a Pasteurella infection in one-day old chicks. The compounds were administered parenterally after challenge of the chicks with Pasteurella multocida (0.1 ml of a 10^-4 dilution of a twenty-hour tryptose broth culture of an avian P. multocida given subcutaneously). In these tests, unless indicated otherwise, all non-medicated infected chicks died within 24 hours of Pasteurella challenge. In the tests summarized in Table V, the compounds were administered by subcutaneous injection at a dosage of 30 mg/kg, 1 and 4 hours post-challenge of the chicks with P. multocida.

[2] = tested on: Staphylococcus aureus X400; test: MIC, standard agar-dilution assay; assay type: cell-based; settings: Staphylococcus aureus, X400
Description: (§1) The MIC's in Table II were determined by standard agar-dilution assays. The MIC's in Table III were obtained using a conventional broth-dilution microtiter test.

[3] = tested on: Staphylococcus epidermidis EPI2; test: MIC, standard agar-dilution assay; assay type: cell-based; settings: Staphylococcus epidermidis, EPI2
Description: as §1

[4] = tested on: Streptococcus pneumoniae Park I; test: MIC, standard agar-dilution assay; assay type: cell-based; settings: Streptococcus pneumoniae
Description: (§2) Certain of the derivatives are active against some gram-negative bacteria, such as Pasteurella species. The MIC's in Table II were determined by standard agar-dilution assays. The MIC's in Table III were obtained using a conventional broth-dilution microtiter test.

[5] = tested on: Klebsiella pneumoniae X26; test: MIC, standard agar-dilution assay; assay type: cell-based; settings: Klebsiella pneumoniae, X26
How it was run: (§3)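 MICs for the two Pasteurella strains and the Mycoplasma strain were read from a broth-dilution microtiter test. The Klebsiella strain was tested on agar instead.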

Escherichia coli EC14 = test: MIC, standard agar-dilution assay; assay type: cell-based
Description: as §2

[6] = tested on: Klebsiella pneumoniae KAE; test: MIC, standard agar-dilution assay; assay type: cell-based
How it was run: (§4)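 Method depends on organism. Klebsiella pneumoniae was assayed on agar. Pasteurella spp. and Mycoplasma gallisepticum were assayed in broth microtiter dilution.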

Escherichia coli TEM = test: MIC, standard agar-dilution assay; assay type: cell-based
How it was run: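 Minimum inhibitory concentrations against Escherichia coli were measured with a standard agar-dilution method. The result for each derivative is the lowest concentration that inhibits bacterial growth, given in ug/mL.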

[7] = tested on: Streptococcus pyogenes C203; test: MIC, standard agar-dilution assay; assay type: cell-based; settings: Streptococcus pyogenes, C203
Description: as §2

[8] = tested on: Streptococcus Group D X66; test: MIC, standard agar-dilution assay; assay type: cell-based
Description: as §2

[9] = tested on: Staphylococcus aureus X1.1; test: MIC, standard agar-dilution assay; assay type: cell-based; settings: Staphylococcus aureus, X1.1
How it was run: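 Minimum inhibitory concentration against Staphylococcus aureus strain X1.1 was measured with a standard agar-dilution method. The result is reported as the MIC in ug/mL, i.e. the lowest compound concentration in agar that prevents visible growth of this organism.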

[10] = tested on: Streptococcus pyogenes 9960; test: MIC, standard agar-dilution assay; assay type: cell-based; settings: 9960
Description: as §2

[11] = tested on: Staphylococcus aureus V41; test: MIC, standard agar-dilution assay; assay type: cell-based; settings: Staphylococcus aureus, V41
Description: as §2

[12] = tested on: Staphylococcus aureus S13E; test: microbe, parasite or virus in culture; assay type: cell-based
Description: as §1

[13] = tested on: Staphylococcus epidermidis EPI1; test: microbe, parasite or virus in culture; assay type: cell-based; settings: Staphylococcus epidermidis, EPI1
Description: as §1

Mycoplasma gallisepticum = test: MIC, conventional broth-dilution microtiter test; assay type: cell-based; settings: Mycoplasmoides gallisepticum
How it was run: as §4

[14] = tested on: Mycoplasma gallisepticum 41313; test: MIC, conventional broth-dilution microtiter test; assay type: cell-based; settings: Mycoplasmoides gallisepticum
How it was run: as §4

[15] = tested on: Pasteurella multocida 40G; test: MIC, conventional broth-dilution microtiter test; assay type: cell-based; settings: Pasteurella multocida, 40G
How it was run: as §4

[16] = tested on: Pasteurella hemolytica 22C; test: MIC, conventional broth-dilution microtiter test; assay type: cell-based
How it was run: as §4

[17] = tested on: Pasteurella multocida 17E; test: MIC, conventional broth-dilution microtiter test; assay type: cell-based; settings: Pasteurella multocida, 17E
How it was run: as §4

[18] = tested on: Pasteurella multocida 22A; test: MIC, conventional broth-dilution microtiter test; assay type: cell-based; settings: Pasteurella multocida, 22A
How it was run: as §4

Mycoplasma synoviae = test: MIC, conventional broth-dilution microtiter test; assay type: cell-based; settings: Mycoplasmopsis synoviae
How it was run: as §3

[19] = tested on: Pasteurella multocida 68C; test: MIC, conventional broth-dilution microtiter test; assay type: cell-based; settings: Pasteurella multocida, 68C
How it was run: as §4

Streptococcus sp. 80 = test: MIC, conventional broth-dilution microtiter test; assay type: cell-based; settings: Streptococcus, SP.80
Description: as §2

[20] = tested on: Pasteurella hemolytica 23C; test: MIC, conventional broth-dilution microtiter test; assay type: cell-based
How it was run: as §4

[21] = tested on: Mycoplasma gallisepticum 34159; test: MIC, conventional broth-dilution microtiter test; assay type: cell-based; settings: Mycoplasmoides gallisepticum
How it was run: as §4

Staphylococcus aureus = test: MIC, conventional broth-dilution microtiter test; assay type: cell-based
Description: as §2

Mycoplasma hyorhinis = test: MIC, conventional broth-dilution microtiter test; assay type: cell-based; settings: Mycoplasma
How it was run: as §3

[22] = tested on: Pasteurella multocida 60A; test: MIC, conventional broth-dilution microtiter test; assay type: cell-based; settings: Pasteurella multocida, 60A
How it was run: as §4

[23] = tested on: Pasteurella hemolytica 41D; test: MIC, conventional broth-dilution microtiter test; assay type: cell-based
How it was run: as §4

[24] = tested on: Haemophilus influenzae 76; test: MIC, standard agar-dilution assay; assay type: cell-based; settings: agar-dilution; Haemophilus influenzae 76, Ampicillin-resistant strain; read-out: MIC
Description: as §1

[25] = tested on: Haemophilus influenzae C.L.; test: MIC, standard agar-dilution assay; assay type: cell-based; settings: Haemophilus influenzae
Description: as §1

Structure (SMILES)	MIC [2]	MIC [3]	MIC [4]	MIC [5]	MIC [7]	MIC [8]	MIC [9]	MIC [10]	MIC [11]	MIC [12]	MIC [13]	MIC (Mycoplasma gallisepticum)	MIC [15]	MIC [17]	MIC [18]	MIC (Mycoplasma synoviae)	MIC [19]	MIC (Streptococcus sp. 80)	MIC (Staphylococcus aureus)	MIC (Mycoplasma hyorhinis)	other results
CCC1OC(=O)CC(O)C(C)C(OC2OC(C)C(O)C(N(C)C)C2O)C(CCOC(=O)Cc2ccccc2)CC(C)C(=O)C=CC(C)=CC1COC(=O)Cc1ccccc1 (centres unmarked) [Compound 30, 20,23-Di-O-Phenylacetyl-20-dihydro-OMT]	0.5 µg/mL (≈ 0.598 µM)	0.5 µg/mL (≈ 0.598 µM)	0.12 µg/mL (≈ 0.144 µM)	8 µg/mL (≈ 9.57 µM)	0.25 µg/mL (≈ 0.299 µM)	0.5 µg/mL (≈ 0.598 µM)	0.25 µg/mL (≈ 0.299 µM)	0.5 µg/mL (≈ 0.598 µM)	0.25 µg/mL (≈ 0.299 µM)	0.25 µg/mL (≈ 0.299 µM)	0.25 µg/mL (≈ 0.299 µM)	0.78 µg/mL (≈ 0.933 µM)	6.25 µg/mL (≈ 7.48 µM)	12.5 µg/mL (≈ 15 µM)	6.25 µg/mL (≈ 7.48 µM)	6.25 µg/mL (≈ 7.48 µM)	6.25 µg/mL (≈ 7.48 µM)	0.39 µg/mL (≈ 0.466 µM)	1.56 µg/mL (≈ 1.87 µM)	50 µg/mL (≈ 59.8 µM)	ED50 ([1]; C203, po, read-out: ED50 Oral): > 100 mg/kg; ED50 ([1]; C203, sc, read-out: ED50 Subcutaneous): > 30 mg/kg; Number of Deaths/Number Treated (Pasteurella multocida): 9/10; MIC (Escherichia coli EC14; Escherichia coli, EC14): > 128 µg/mL; MIC ([6]; Klebsiella pneumoniae): > 128 µg/mL; MIC (Escherichia coli TEM; Escherichia coli): 8 µg/mL (≈ 9.57 µM); MIC [14]; 41313: 50 µg/mL (≈ 59.8 µM); MIC ([16]; Pasteurella, 22C): 6.25 µg/mL (≈ 7.48 µM); MIC ([20]; Pasteurella, 23C): 6.25 µg/mL (≈ 7.48 µM); MIC [21]; 34159: 12.5 µg/mL (≈ 15 µM); MIC [22]: 6.25 µg/mL (≈ 7.48 µM); MIC ([23]; Pasteurella, 41D): 6.25 µg/mL (≈ 7.48 µM)
CCC1OC(=O)CC(O)C(C)C(OC2OC(C)C(O)C(N(C)C)C2O)C(CCOc2ccccc2)CC(C)C(=O)C=CC(C)=CC1COC(=O)CCc1ccccc1 (centres unmarked) [Compound 33, 20-O-Phenyl-20-dihydro-23-O-phenylpropionyl-OMT]	2 µg/mL (≈ 2.48 µM)	1 µg/mL (≈ 1.24 µM)	0.5 µg/mL (≈ 0.619 µM)	32 µg/mL (≈ 39.6 µM)	2 µg/mL (≈ 2.48 µM)	1 µg/mL (≈ 1.24 µM)	1 µg/mL (≈ 1.24 µM)	2 µg/mL (≈ 2.48 µM)	1 µg/mL (≈ 1.24 µM)	1 µg/mL (≈ 1.24 µM)	1 µg/mL (≈ 1.24 µM)	0.78 µg/mL (≈ 0.965 µM)	3.12 µg/mL (≈ 3.86 µM)	3.12 µg/mL (≈ 3.86 µM)	3.12 µg/mL (≈ 3.86 µM)	6.25 µg/mL (≈ 7.73 µM)	3.12 µg/mL (≈ 3.86 µM)	0.097 µg/mL (≈ 0.12 µM)	0.78 µg/mL (≈ 0.965 µM)	50 µg/mL (≈ 61.9 µM)	ED50 ([1]; C203, mice, oral, mg/kg × 2, doses given 1 and 4 hours postinfection, read-out: ED50 Oral): > 50 mg/kg; ED50 ([1]; C203, sc, mice, subcutaneous, mg/kg × 2, doses given 1 and 4 hours postinfection, read-out: ED50 Subcutaneous): > 10 mg/kg; MIC [24]: > 128 µg/mL; MIC [25]: 128 µg/mL (≈ 158 µM); MIC (Escherichia coli EC14; agar-dilution, Escherichia coli EC14, read-out: MIC): > 128 µg/mL; MIC ([6]; agar-dilution, Klebsiella pneumoniae KAE, read-out: MIC): > 128 µg/mL; MIC (Escherichia coli TEM; agar-dilution, Escherichia coli TEM, read-out: MIC): > 128 µg/mL; MIC ([14]; broth-dilution microtiter, Mycoplasma gallisepticum 41313, Resistant strain, read-out: MIC): 25 µg/mL (≈ 30.9 µM); MIC ([16]; broth-dilution microtiter, Pasteurella hemolytica 22C, read-out: MIC): 25 µg/mL (≈ 30.9 µM); MIC ([20]; broth-dilution microtiter, Pasteurella hemolytica 23C, read-out: MIC): 25 µg/mL (≈ 30.9 µM); MIC ([21]; broth-dilution microtiter, Mycoplasma gallisepticum 34159, Resistant strain, read-out: MIC): 12.5 µg/mL (≈ 15.5 µM); MIC [22]: 3.12 µg/mL (≈ 3.86 µM); MIC ([23]; broth-dilution microtiter, Pasteurella hemolytica 41D, read-out: MIC): 25 µg/mL (≈ 30.9 µM)
